Experimental data as given in paper PMC9857510, “Identification of Immune-Active Peptides in Casein Hydrolysates and Its Transport Mechanism on a Caco-2 Monolayer” (Foods, 2023).
Where two headings read alike, the source gives them in different places. Residues, ends and D or L forms follow the SMILES beside them. No end group written: not given here.

Tests used:
Caco-2 cell monolayer [1] = assay: Absorption mechanism: phenylarsine oxide (endocytosis) and sodium deoxycholate (bypass transport) pre-incubation; format: in vitro ADME, human
Description: (§1) After 0.5 mL of 10 mM Gly-Pro, 0.1 mM sodium deoxycholate and 0.025 mM phenylarsine oxide were added to different wells on the AP side, and the Transwell plates were incubated in a CO2 incubator for 30 min and followed by the removal of these compounds. The peptides were then added to the AP side, and Hank’s Balanced Salt Solution (HBSS) buffer was added to the BL side, and samples were collected after 2 h.

in vitro = conditions: human, Caco-2, pH 7.4
Description: (§3) Reverse phase high-performance liquid chromatography (RP-HPLC) was used to analyze the composition of peptides passed through the Caco-2 cell membrane. The elution parameters were as follows: the mobile phase B was ultra-pure water containing 0.1% Trifluoroacetic acid (TFA), and mobile phase A contained acetonitrile supplemented with 0.1% TFA. Adopting a gradient elution method, in detail, at 0.01 min, mobile phase A was 5%; at 25 min, mobile phase A was 70%. The absorbance of RP-HPLC was detected at 220 nm. The peak yields of the five electroactive peptides at the concentrations of 0.5 mM, 0.2 mM, 0.1 mM, 0.05 mM, and 0.025 mM were detected. The concentration was set as the abscissa and the peak area was set as the ordinate to draw the standard curves of the different peptide segments.
(§4) Caco-2 cells were maintained in an incubator at 37 °C, with 5% CO2 and relative humidity of 90% until the number of cells accounted for 80–90% of confluency [19]. After that, the medium was added to obtain a cellular suspension with 4 × 10^5 cells/mL, which was seeded on a 12-well Transwell plate added to the AP side of the 0.5 mL cell suspension, and the Basal lateral (BL) side by adding 1.5 mL of cell culture medium after one day after the exchange, Then, the fluid was changed every other day for 6 days, and the fluid was changed every day until the culture was completed. […] The main detection indicators were: (1) cell morphology observation; (2) the cell membrane compactness using fluorescent yellow test; (3) the detection of single-cell membrane resistance [20]; (4) alkaline phosphatase activities at the top and the basal side of the cell membrane were detected respectively to preliminarily determine the polarity of it.
(§5) The Papp formula of fluorescence is as follows:(2) Papp=dQ/dt/A×C0 where: C0—Initial concentration of fluorescent yellow (mg/mL); A—Membrane surface area (cm^2); dQ/dt—Transport of fluorescent yellow per unit time; Papp—Apparent permeability coefficient.

Caco-2 cell monolayer [2] = assay: Peptide efflux: sodium azide pre-incubation (ATP production); format: in vitro ADME, human; conditions: 10 mM sodium azide, AP-BL, 2 h, vs blank
Description: (§2) In total, 0.5 mL of 0.05 mM MK-571 sodium salt, 0.1 mM verapamil, and 10 mM sodium azide were added to the AP side hole of the Transwell plate and incubated in a CO2 incubator for 30 min. After this incubation, the compounds were removed, the peptide was added to the AP side, and HBSS buffer was added to the BL side for 2 h.

MRP2 = target: T1, MRP2 (Homo sapiens, UniProt Q92887); assay: Peptide efflux: MK-571 sodium salt pre-incubation; format: in vitro ADME; conditions: 0.05 mM MK-571 sodium salt, AP-BL, 2 h, vs blank
T1 construct: Multidrug resistance protein (MRP) and P-glycoprotein in Caco-2 cells are energy-dependent efflux transporters; endogenous in cells; host or cells: Caco-2
Description: as §2

[3] = target: T2, Peptide transporter 1 (Pep T1) (Homo sapiens, UniProt P46059); assay: Absorption mechanism: Gly-Pro pre-incubation (carrier transport); format: in vitro ADME; conditions: 10 mM Gly-Pro, 30 min pre-incubation, 2 h transport, vs blank
T2 construct: endogenous in cells; host or cells: Caco-2
T2 sequence (P46059 1-708): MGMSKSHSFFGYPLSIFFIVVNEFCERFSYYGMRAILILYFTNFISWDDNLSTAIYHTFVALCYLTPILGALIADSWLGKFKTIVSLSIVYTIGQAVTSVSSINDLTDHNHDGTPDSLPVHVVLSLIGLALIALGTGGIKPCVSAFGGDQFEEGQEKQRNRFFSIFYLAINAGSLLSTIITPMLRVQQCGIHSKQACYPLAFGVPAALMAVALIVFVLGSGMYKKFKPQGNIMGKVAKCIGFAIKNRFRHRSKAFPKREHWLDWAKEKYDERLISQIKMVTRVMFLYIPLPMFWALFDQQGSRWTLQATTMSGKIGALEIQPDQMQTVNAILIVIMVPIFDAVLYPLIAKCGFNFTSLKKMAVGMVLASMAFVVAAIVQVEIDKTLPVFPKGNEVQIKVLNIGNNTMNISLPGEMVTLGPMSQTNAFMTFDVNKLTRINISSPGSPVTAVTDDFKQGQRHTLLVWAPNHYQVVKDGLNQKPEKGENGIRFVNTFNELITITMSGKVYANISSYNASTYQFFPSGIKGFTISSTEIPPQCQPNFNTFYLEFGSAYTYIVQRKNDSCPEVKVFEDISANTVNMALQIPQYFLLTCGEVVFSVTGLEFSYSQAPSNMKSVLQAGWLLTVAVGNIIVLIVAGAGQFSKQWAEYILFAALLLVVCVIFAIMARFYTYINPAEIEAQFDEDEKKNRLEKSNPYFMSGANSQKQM
Description: as §1

P-glycoprotein = target: T3, P-glycoprotein (Homo sapiens, UniProt P08183); assay: Peptide efflux: verapamil pre-incubation; format: in vitro ADME; conditions: 0.1 mM verapamil, AP-BL, 2 h, vs blank
T3 construct: Multidrug resistance protein (MRP) and P-glycoprotein in Caco-2 cells are energy-dependent efflux transporters; endogenous in cells; host or cells: Caco-2
Description: as §2

Caco-2 cell monolayer [4] = tested on: Caco-2 cell monolayer
Description: as §3, §4, §5

Caco-2 cell monolayer [5] = assay: Integrity of peptides after passing the Caco-2 monolayer (RP-HPLC, LC-MS/MS); format: in vitro ADME, human; conditions: for integrity of the peptide after passing through the Caco-2 cell membrane: RP-HPLC and LC/MS of BL-side liquid; for Concentration (ppm): peptide and fragments found by LC-MS in the liquid that passed the membrane, parents RYPLGYL, KHPIK, FFSDK
Caco-2 cell monolayer [6] = assay: Transport assay on Caco-2 cell monolayer (Transwell, RP-HPLC quantification)
Description: as §3, §4, §5

T3 sequence (P08183 whole entry): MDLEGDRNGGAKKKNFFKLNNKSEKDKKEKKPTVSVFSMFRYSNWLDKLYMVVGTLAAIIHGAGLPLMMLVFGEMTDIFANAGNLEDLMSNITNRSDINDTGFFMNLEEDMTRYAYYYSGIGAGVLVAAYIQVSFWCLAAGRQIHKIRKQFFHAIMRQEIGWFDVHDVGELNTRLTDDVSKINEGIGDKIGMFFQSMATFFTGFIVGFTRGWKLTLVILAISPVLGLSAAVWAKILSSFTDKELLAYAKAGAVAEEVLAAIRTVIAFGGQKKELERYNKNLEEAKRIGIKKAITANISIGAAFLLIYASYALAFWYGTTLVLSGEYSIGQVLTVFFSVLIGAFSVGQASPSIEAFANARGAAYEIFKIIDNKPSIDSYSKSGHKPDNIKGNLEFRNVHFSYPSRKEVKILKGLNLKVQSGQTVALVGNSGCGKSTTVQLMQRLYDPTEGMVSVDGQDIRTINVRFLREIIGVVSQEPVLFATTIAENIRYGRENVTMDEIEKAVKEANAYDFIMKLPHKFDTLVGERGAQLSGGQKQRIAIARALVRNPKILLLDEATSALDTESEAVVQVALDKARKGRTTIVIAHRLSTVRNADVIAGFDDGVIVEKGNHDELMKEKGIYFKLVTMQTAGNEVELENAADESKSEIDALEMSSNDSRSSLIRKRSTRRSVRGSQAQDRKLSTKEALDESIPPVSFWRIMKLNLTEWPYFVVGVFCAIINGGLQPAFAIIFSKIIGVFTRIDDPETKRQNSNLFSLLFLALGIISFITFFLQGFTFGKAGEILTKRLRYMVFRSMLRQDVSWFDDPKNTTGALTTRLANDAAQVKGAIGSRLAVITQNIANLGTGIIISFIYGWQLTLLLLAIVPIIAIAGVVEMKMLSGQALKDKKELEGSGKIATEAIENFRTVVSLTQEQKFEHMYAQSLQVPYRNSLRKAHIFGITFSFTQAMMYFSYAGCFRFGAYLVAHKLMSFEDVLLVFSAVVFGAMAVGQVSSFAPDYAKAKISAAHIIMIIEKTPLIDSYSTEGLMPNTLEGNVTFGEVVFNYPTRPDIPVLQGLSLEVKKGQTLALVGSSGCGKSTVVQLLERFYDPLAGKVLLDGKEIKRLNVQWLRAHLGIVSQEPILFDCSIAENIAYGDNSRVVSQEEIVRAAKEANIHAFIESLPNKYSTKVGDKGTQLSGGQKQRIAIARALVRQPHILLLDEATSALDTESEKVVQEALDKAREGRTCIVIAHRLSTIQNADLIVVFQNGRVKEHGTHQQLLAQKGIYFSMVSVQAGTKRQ
T1 sequence (Q92887 whole entry): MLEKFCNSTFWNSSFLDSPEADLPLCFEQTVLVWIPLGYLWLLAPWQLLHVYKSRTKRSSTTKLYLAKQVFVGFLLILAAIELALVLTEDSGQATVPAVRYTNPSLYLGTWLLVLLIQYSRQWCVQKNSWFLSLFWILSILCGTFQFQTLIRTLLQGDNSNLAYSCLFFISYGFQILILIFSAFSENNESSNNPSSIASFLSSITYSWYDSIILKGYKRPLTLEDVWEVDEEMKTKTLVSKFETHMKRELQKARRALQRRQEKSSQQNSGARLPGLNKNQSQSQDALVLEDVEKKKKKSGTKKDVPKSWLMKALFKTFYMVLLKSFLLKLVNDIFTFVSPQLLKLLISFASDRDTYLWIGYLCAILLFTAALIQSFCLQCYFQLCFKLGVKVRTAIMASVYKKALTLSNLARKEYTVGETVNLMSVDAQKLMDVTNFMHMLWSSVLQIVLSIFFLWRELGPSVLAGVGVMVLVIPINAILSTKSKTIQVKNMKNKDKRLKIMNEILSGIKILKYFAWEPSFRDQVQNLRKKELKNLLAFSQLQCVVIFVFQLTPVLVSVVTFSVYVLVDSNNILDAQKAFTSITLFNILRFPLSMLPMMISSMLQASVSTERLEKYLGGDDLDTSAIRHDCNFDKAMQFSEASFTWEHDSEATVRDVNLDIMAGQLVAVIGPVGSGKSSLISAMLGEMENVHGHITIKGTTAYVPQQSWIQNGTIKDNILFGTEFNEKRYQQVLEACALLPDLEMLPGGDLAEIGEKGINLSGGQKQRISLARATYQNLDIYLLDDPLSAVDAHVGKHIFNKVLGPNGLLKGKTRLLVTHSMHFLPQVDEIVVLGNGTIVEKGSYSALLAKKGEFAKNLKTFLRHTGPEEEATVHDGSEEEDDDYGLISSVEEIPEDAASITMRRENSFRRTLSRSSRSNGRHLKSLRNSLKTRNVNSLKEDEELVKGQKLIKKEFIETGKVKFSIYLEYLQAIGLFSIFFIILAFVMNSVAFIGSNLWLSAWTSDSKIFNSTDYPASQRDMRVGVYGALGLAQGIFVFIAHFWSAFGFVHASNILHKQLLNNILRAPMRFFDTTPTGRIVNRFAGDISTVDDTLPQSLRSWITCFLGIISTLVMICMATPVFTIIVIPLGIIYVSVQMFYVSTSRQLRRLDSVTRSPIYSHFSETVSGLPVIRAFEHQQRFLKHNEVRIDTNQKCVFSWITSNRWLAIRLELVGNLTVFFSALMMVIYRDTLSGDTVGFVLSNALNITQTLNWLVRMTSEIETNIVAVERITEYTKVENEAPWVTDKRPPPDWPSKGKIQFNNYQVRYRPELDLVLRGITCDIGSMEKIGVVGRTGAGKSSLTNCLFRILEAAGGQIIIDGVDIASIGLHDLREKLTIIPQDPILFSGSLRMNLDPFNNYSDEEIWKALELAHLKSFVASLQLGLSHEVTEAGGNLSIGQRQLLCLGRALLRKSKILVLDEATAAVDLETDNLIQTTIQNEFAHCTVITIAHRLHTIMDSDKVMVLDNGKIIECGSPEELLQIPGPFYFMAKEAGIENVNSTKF

| Molecule | main transport mechanism in intestinal epithelial cells (Caco-2 cell monolayer [1]) | Papp A→B at 2 h, 5 mM (in vitro) [×10⁻⁶ cm/s] | integrity of the peptide after passing through the Caco-2 cell membrane (Caco-2 cell monolayer [5]) | Concentration (ppm) (Caco-2 cell monolayer [5]) | also measured |
| --- | --- | --- | --- | --- | --- |
| KHPIKH [KHPIKH, Lys-His-Pro-Ile-Lys-His] | bypass diffusion | 0.26 |  |  |  |
| N[C@@H](Cc1ccc(O)cc1)C(=O)NCC(=O)NCC(=O)O [YGG, Tyr-Gly-Gly] (H-Tyr-Gly-Gly-OH; N-terminus and C-terminus assumed) |  |  |  |  | effect of sodium azide on concentration on the BL side (Caco-2 cell monolayer [2]): slightly higher; effect of MK-571 sodium salt on transmembrane transport (MRP2): no significant differences; main transport mechanism in intestinal epithelial cells (Caco-2 cell monolayer [1]; Caco-2 monolayer): bypass diffusion; effect of Gly-Pro on transport to the BL side [3]: no significant differences; effect of verapamil on transmembrane transport (P-glycoprotein): significantly promote |
| KHPIK [KHPIK, Lys-His-Pro-Ile- Lys] | bypass diffusion | 0.322 | Most of the KHPIK and FFSDK were hydrolyzed into KHP and FFS | 2.59 | amount across the membrane versus time (Caco-2 cell monolayer [4]; Caco-2): increased slowly; amount transported versus time (Caco-2 cell monolayer [4]; Caco-2): increased rapidly; transport quantity BL-AP side compared with AP-BL side (Caco-2 cell monolayer [4]; Caco-2): significantly lower; transmembrane transport capacity on the BL side (Caco-2 cell monolayer [4]; Caco-2, pH 6): 23.14 µM; transmembrane transport capacity on the BL side (Caco-2 cell monolayer [4]; Caco-2, pH 7): greater than 30.01 μM; transmembrane transport capacity on the BL side (Caco-2 cell monolayer [4]; Caco-2, pH 7.4): 44.35 µM |
| RYPLGYL [RYPLGYL, Arg-Tyr-Pro-Leu-Gly-Tyr-Leu] | bypass diffusion | 0.161 | resistant to the enzymatic hydrolysis of intestinal epithelial cells | 10.74 |  |
| FFSDK [FFSDK, Phe-Phe-Ser-Asp-Lys] | bypass diffusion | 0.491 | Most of the KHPIK and FFSDK were hydrolyzed into KHP and FFS | 2.59 |  |
| NNC(=O)NN1C(=O)c2cc(S(=O)(=O)[O-])cc3c(N)c(S(=O)(=O)[O-])cc(c23)C1=O.[Li+].[Li+] [fluorescence yellow] |  |  |  |  | Papp of fluorescence yellow (Caco-2 cell monolayer [6]; Caco-2 monolayer density check): 0.607 ×10⁻⁶ cm/s; increase of transmittance (Caco-2 cell monolayer [6]; experimental group (Caco-2 monolayer), from 0.5 h to 2.5 h): 1.6% |
